Results as given in US10112899B2 (ViiV HEALTHCARE UK LIMITED, priority 2014, dated 2018).

Tested on: HIV in the HTLV-1 transformed cell line MT-4
Experiment: organism not typed
Assay type: cell-based
Details: MT4, 96 h, MT-4 cells; luciferase/cell titer glo readout after 96 hours; 10 point dose response

SMILES | IC50 [nM]
Cc1ccc(-c2c(C)c3c(c(C)c2[C@H](OC(C)(C)C)C(=O)O)CN(C(=O)N2CCCCCCC2)C3)cc1 [Example 65, (2S)-2-[2-(azocane-1-carbonyl)-4,7-dimethyl-6-(4-methylphenyl)-2,3-dihydro-1H-isoindol-5-yl]-2-(tert-butoxy)acetic acid] | 10
Cc1ccc(-c2c(C)c3c(c(C)c2[C@H](OC(C)(C)C)C(=O)O)CN(C(=O)N2CCCC(F)(F)C2)C3)cc1 [Example 66, (2S)-2-(tert-butoxy)-2-[2-(3,3-difluoropiperidine-1-carbonyl)-4,7-dimethyl-6-(4-methylphenyl)-2,3-dihydro-1H-isoindol-5-yl]acetic acid] | 6
Cc1ccc(-c2c(C)c3c(c(C)c2[C@H](OC(C)(C)C)C(=O)O)CN(C(=O)N(C)C2CCCCC2)C3)cc1 [Example 67, (2S)-2-(tert-butoxy)-2-{2-[cyclohexyl(methyl)carbamoyl]-4,7-dimethyl-6-(4-methylphenyl)-2,3-dihydro-1H-isoindol-5-yl}acetic acid] | 55
Cc1ccc(-c2c(C)c3c(c(C)c2[C@H](OC(C)(C)C)C(=O)O)CN(C(=O)N2CCC(F)(F)C2)C3)cc1 [Example 68, (2S)-2-(tert-butoxy)-2-[2-(3,3-difluoropyrrolidine-1-carbonyl)-4,7-dimethyl-6-(4-methylphenyl)-2,3-dihydro-1H-isoindol-5-yl]acetic acid] | 8
Cc1ccc(-c2c(C)c3c(c(C)c2[C@H](OC(C)(C)C)C(=O)O)CN(C(=O)N2CCCC[C@H]2C)C3)cc1 [Example 69, (2S)-2-(tert-butoxy)-2-[4,7-dimethyl-6-(4-methylphenyl)-2-[(2R)-2-methylpiperidine-1-carbonyl]-2,3-dihydro-1H-isoindol-5-yl]acetic acid] | 14
Cc1ccc(-c2c(C)c3c(c(C)c2[C@H](OC(C)(C)C)C(=O)O)CN(C(=O)NC2CCC2)C3)cc1 [Example 70, (2S)-2-(tert-butoxy)-2-[2-(cyclobutylcarbamoy)-4,7-dimethyl-6-(4-methylphenyl)-2,3-dihydro-1H-isoindol-5-yl]acetic acid] | 34
Cc1ccc(-c2c(C)c3c(c(C)c2[C@H](OC(C)(C)C)C(=O)O)CN(C(=O)N2CCN(C)CC2)C3)cc1 [Example 71, (2S)-2-(tert-butoxy)-2-[4,7-dimethyl-6-(4-methylphenyl)-2-(4-methylpiperazine-1-carbonyl)-2,3-dihydro-1H-isoindol-5-yl]acetic acid] | 276
Cc1ccc(-c2c(C)c3c(c(C)c2[C@H](OC(C)(C)C)C(=O)O)CN(C(=O)N2CCOC[C@H]2C)C3)cc1 [Example 72, (2S)-2-(tert-butoxy)-2-{4,7-dimethyl-2-[(3R)-3-methylmorpholine-4-carbonyl]-6-(4-methylphenyl)-2,3-dihydro-1H-isoindol-5-yl}acetic acid] | 16
Cc1ccc(-c2c(C)c3c(c(C)c2[C@H](OC(C)(C)C)C(=O)O)CN(C(=O)N2C[C@H](C)O[C@@H](C)C2)C3)cc1 [Example 73, (2S)-2-(tert-butoxy)-2-{2-[(2S,6S)-2,6-dimethylmorpholine-4-carbonyl]-4,7-dimethyl-6-(4-methylphenyl)-2,3-dihydro-1H-isoindol-5-yl}acetic acid] | 26
Cc1ccc(-c2c(C)c3c(c(C)c2[C@H](OC(C)(C)C)C(=O)O)CN(C(=O)NCC(C)(C)C)C3)cc1 [Example 74, (2S)-2-(tert-butoxy)-2-{2-[(2,2-dimethylpropyl)carbamoyl]-4,7-dimethyl-6-(4-methylphenyl)-2,3-dihydro-1H-isoindol-5-yl}acetic acid] | 21
Cc1ccc(-c2c(C)c3c(c(C)c2[C@H](OC(C)(C)C)C(=O)O)CN(C(=O)N2CC4CCC(C2)O4)C3)cc1 [Example 75, (2S)-2-(tert-butoxy)-2-[4,7-dimethyl-6-(4-methylphenyl)-2-{8-oxa-3-azabicyclo[3.2.1]octane-3-carbonyl}-2,3-dihydro-1H-isoindol-5-yl]acetic acid] | 34
Cc1ccc(-c2c(C)c3c(c(C)c2[C@H](OC(C)(C)C)C(=O)O)CN(C(=O)N2CCCOCC2)C3)cc1 [Example 76, (2S)-2-(tert-butoxy)-2-[4,7-dimethyl-6-(4-methylphenyl)-2-(1,4-oxazepane-4-carbonyl)-2,3-dihydro-1H-isoindol-5-yl]acetic acid] | 12
Cc1ccc(-c2c(C)c3c(c(C)c2[C@H](OC(C)(C)C)C(=O)O)CN(C(=O)N2CC[C@H](O)C2)C3)cc1 [Example 77, (2S)-2-(tert-butoxy)-2-{2-[(3S)-3-hydroxypyrrolidine-1-carbonyl]-4,7-dimethyl-6-(4-methylphenyl)-2,3-dihydro-1H-isoindol-5-yl}acetic acid] | 160
Cc1ccc(-c2c(C)c3c(c(C)c2[C@H](OC(C)(C)C)C(=O)O)CN(C(=O)N(C)CC2CCCCC2)C3)cc1 [Example 78, (2S)-2-(tert-butoxy)-2-{2-[(cyclohexylmethyl)(methyl)carbamoyl]-4,7-dimethyl-6-(4-methylphenyl)-2,3-dihydro-1H-isoindol-5-yl}acetic acid] | 126
Cc1ccc(-c2c(C)c3c(c(C)c2[C@H](OC(C)(C)C)C(=O)O)CN(C(=O)NCCOCc2ccccc2)C3)cc1 [Example 79, (2S)-2-(2-{[2-(benzyloxy)ethyl]carbamoyl}-4,7-dimethyl-6-(4-methylphenyl)-2,3-dihydro-1H-isoindol-5-yl)-2-(tert-butoxy)acetic acid] | 231
Cc1ccc(-c2c(C)c3c(c(C)c2[C@H](OC(C)(C)C)C(=O)O)CN(C(=O)N2CCN4CCC[C@@H]4C2)C3)cc1 [Example 80, (2S)-2-{2-[(8aR)-octahydropyrrolo[1,2-a]piperazine-2-carbonyl]-4,7-dimethyl-6-(4-methylphenyl)-2,3-dihydro-1H-isoindol-5-yl}-2-(tert-butoxy)acetic acid] | 381
Cc1ccc(-c2c(C)c3c(c(C)c2[C@H](OC(C)(C)C)C(=O)O)CN(C(=O)N2CCC(C)CC2)C3)cc1 [Example 81, (S)-2-(tert-butoxy)-2-(4,7-dimethyl-2-(4-methylpiperidine-1-carbonyl)-6-(p-tolyl)isoindolin-5-yl)acetic acid] | 16
Cc1ccc(-c2c(C)c3c(c(C)c2[C@H](OC(C)(C)C)C(=O)O)CN(C(=O)N2CC4CCCC4C2)C3)cc1 (stereo partly drawn) [Example 82, (2S)-2-(tert-butoxy)-2-(4,7-dimethyl-2-(octahydrocyclopenta[c]pyrrole-2-carbonyl)-6-(p-tolyl)isoindolin-5-yl)acetic acid] | 14
Cc1ccc(-c2c(C)c3c(c(C)c2[C@H](OC(C)(C)C)C(=O)O)CN(C(=O)N2[C@H]4CC[C@@H]2CC4)C3)cc1 [Example 83, (S)-2-(2-((1R,4R)-7-azabicyclo[2.2.1]heptane-7-carbonyl)-4,7-dimethyl-6-(p-tolyl)isoindolin-5-yl)-2-(tert-butoxy)acetic acid] | 6
Cc1ccc(-c2c(C)c3c(c(C)c2[C@H](OC(C)(C)C)C(=O)O)CN(C(=O)N2CCC(C)(C)CC2)C3)cc1 [Example 84, (S)-2-(tert-butoxy)-2-(2-(4,4-dimethylpiperidine-1-carbonyl)-4,7-dimethyl-6-(p-tolyl)isoindolin-5-yl)acetic acid] | 11
CC(=O)N1CCN(C(=O)N2Cc3c(C)c(-c4ccc(C)cc4)c([C@H](OC(C)(C)C)C(=O)O)c(C)c3C2)CC1 [Example 85, (S)-2-(2-(4-acetylpiperazine-1-carbonyl)-4,7-dimethyl-6-(p-tolyl)isoindolin-5-yl)-2-(tert-butoxy)acetic acid] | 120
Cc1ccc(-c2c(C)c3c(c(C)c2[C@H](OC(C)(C)C)C(=O)O)CN(C(=O)N2CCNCC2)C3)cc1 [Example 86, (S)-2-(tert-butoxy)-2-(4,7-dimethyl-2-(piperazine-1-carbonyl)-6-(p-tolyl)isoindolin-5-yl)acetic acid] | 1160
Cc1ccc(-c2c(C)c3c(c(C)c2[C@H](OC(C)(C)C)C(=O)O)CN(C(=O)N2CCC[C@@H]2C)C3)cc1 [Example 87, (S)-2-(tert-butoxy)-2-(4,7-dimethyl-2-((S)-2-methylpyrrolidine-1-carbonyl)-6-(p-tolyl)isoindolin-5-yl)acetic acid] | 5
Cc1ccc(-c2c(C)c3c(c(C)c2[C@H](OC(C)(C)C)C(=O)O)CN(C(=O)N2C[C@H](C)OC[C@H]2C)C3)cc1 [Example 88, (S)-2-(tert-butoxy)-2-(2-((2S,5R)-2,5-dimethylmorpholine-4-carbonyl)-4,7-dimethyl-6-(p-tolyl)isoindolin-5-yl)acetic acid] | 18
Cc1ccc(-c2c(C)c3c(c(C)c2[C@H](OC(C)(C)C)C(=O)O)CN(C(=O)N2CCC(F)CC2)C3)cc1 [Example 89, (S)-2-(tert-butoxy)-2-(2-(4-fluoropiperidine-1-carbonyl)-4,7-dimethyl-6-(p-tolyl)isoindolin-5-yl)acetic acid] | 11
Cc1ccc(-c2c(C)c3c(c(C)c2[C@H](OC(C)(C)C)C(=O)O)CN(C(=O)N2CCN(C)C(=O)C2)C3)cc1 [Example 90, (S)-2-(tert-butoxy)-2-(4,7-dimethyl-2-(4-methyl-3-oxopiperazine-1-carbonyl)-6-(p-tolyl)isoindolin-5-yl)acetic acid] | 267
Cc1ccc(-c2c(C)c3c(c(C)c2[C@H](OC(C)(C)C)C(=O)O)CN(C(=O)N2CCOC[C@@H]2C)C3)cc1 [Example 91, (S)-2-(tert-butoxy)-2-(4,7-dimethyl-2-((S)-3-methylmorpholine-4-carbonyl)-6-(p-tolyl)isoindolin-5-yl)acetic acid] | 13
Cc1ccc(-c2c(C)c3c(c(C)c2[C@H](OC(C)(C)C)C(=O)O)CN(C(=O)N2CCC(F)(F)CC2)C3)cc1 [Example 92, (S)-2-(tert-butoxy)-2-(2-(4,4-difluoropiperidine-1-carbonyl)-4,7-dimethyl-6-(p-tolyl)isoindolin-5-yl)acetic acid] | 16
Cc1ccc(-c2c(C)c3c(c(C)c2[C@H](OC(C)(C)C)C(=O)O)CN(C(=O)N2CCCC(C)(C)C2)C3)cc1 [Example 93, (S)-2-(tert-butoxy)-2-(2-(3,3-dimethylpiperidine-1-carbonyl)-4,7-dimethyl-6-(p-tolyl)isoindolin-5-yl)acetic acid] | 7
